Experimental data from patent US20210038607A1, “OXADIAZOLYLTHIOPHENE DERIVATIVES USEFUL AS HISTONE DEACETYLASE INHIBITORS” (Karus Therapeutics Limited, priority 2018, published 2021).

How the values were obtained:
[1] = molecular target: T1, Human HDAC1 (Homo sapiens, UniProt Q13547); assay: HDAC1 biochemical assay, AMC-labeled peptide substrate; conditions: read-out: HDAC Isoform IC50 (nM) 1
T1 construct: full length with C-terminal His-tag and C-terminal FLAG-tag; His (C); FLAG (C); host or cells: baculovirus expression system
Experimental: (§1) Activity against all zinc-dependent HDACs 1 to 11 was assessed by using an acetylated AMC-labeled peptide substrate. The substrate RHKK(Ac)AMC was used for HDAC1, HDAC2, HDAC3, HDAC6 and HDAC10; the substrate used for HDAC8 was RHK(Ac)K(Ac)AMC. Activity against the class IIa HDACs (HDAC4, 5, 7, 9) and HDAC11 was determined using a class IIa-specific substrate, BOC-Lys(trifluoroacetyl)-AMC (“Trifluoroacetyl Lysine”; see Lahm et al, 2007, PNAS, 104, 17335-17340). All assays were based on the AMC-labeled substrate and developer combination.
(§2) The protocol involved a two-step reaction: first, the substrate with the acetylated lysine side chain is incubated with a sample containing HDAC activity, to produce the deacetylated products, which are then digested in the second step by the addition of developer to produce the fluorescent signal proportional to the amount of deacetylated substrates.
Human HDAC1 (GenBank Accession No. NM_004964), full length with C-terminal His-tag and C-terminal FLAG-tag, MW=56 kDa, expressed in baculovirus expression system.
(§3) Assay Buffer: 50 mM Tris-HCl, pH8.0, 137 mM NaCl, 2.7 mM KCl, 1 mM MgC2. Before use, 1 mg/mL BSA and DMSO are added.
HDAC1: 0.3 ng/ul HDAC1 and 50 μM HDAC substrate are in the reaction buffer with 1% DMSO final. Incubate for 1 hour at 30° C.
(§4) Stage 1: Deacetylation of substrate by incubation of HDAC enzymes with compounds
(§5) Stage 2: Development by addition of Developer to digest the deacetylated substrate, and generate the fluorescent colour; Detection: 360/460 Ex/Em

[2] = molecular target: T2, Human HDAC4 (Homo sapiens, UniProt P56524); assay: HDAC4 biochemical assay, class IIa-specific substrate; conditions: read-out: HDAC Isoform IC50 (nM) 4
T2 construct: amino acids 627-1085 with N-terminal GST tag; GST (N); host or cells: baculovirus expression system
Experimental: as §1, §2
Human HDAC4 (GenBank Accession No. NM_006037), amino acids 627-1085 with N-terminal GST tag, MW=75.2 kDa, expressed in baculovirus expression system.
as §3
(§6) For class IIa HDACs, assay buffer is the same.
HDAC4: 0.004 ng/ul HDAC4 and 50 μM Class IIa HDAC substrate are in the reaction buffer with 1% DMSO final. Incubate for 30 minutes at room temperature.
as §4, §5

[3] = molecular target: T3, Human HDAC5 (Homo sapiens, UniProt Q9UQL6); assay: HDAC5 biochemical assay, class IIa-specific substrate; conditions: read-out: HDAC Isoform IC50 (nM) 5
T3 construct: full length with C-terminal His tag, MW=51.1 kDa; His (C); host or cells: baculovirus expression system
Experimental: as §1, §2
Human HDAC5 (GenBank Accession No. NM_005474), full length with C-terminal His tag, MW=51.1 kDa, expressed in baculovirus expression system.
as §3, §6
HDAC5: 0.05 ng/ul HDAC5 and 50 μM Class IIa HDAC substrate are in the reaction buffer with 1% DMSO final. Incubate for 30 minutes at room temperature.
as §4, §5

[4] = molecular target: T4, Recombinant human HDAC6 (Homo sapiens, UniProt Q9UBN7); assay: HDAC6 biochemical assay, AMC-labeled peptide substrate; conditions: HDAC6; read-out: HDAC Isoform IC50 (nM) 6
T4 construct: full length, MW=159 kDa; GST (N); host or cells: Sf9 insect cells (baculovirus)
T4 sequence (Q9UBN7 1-1215): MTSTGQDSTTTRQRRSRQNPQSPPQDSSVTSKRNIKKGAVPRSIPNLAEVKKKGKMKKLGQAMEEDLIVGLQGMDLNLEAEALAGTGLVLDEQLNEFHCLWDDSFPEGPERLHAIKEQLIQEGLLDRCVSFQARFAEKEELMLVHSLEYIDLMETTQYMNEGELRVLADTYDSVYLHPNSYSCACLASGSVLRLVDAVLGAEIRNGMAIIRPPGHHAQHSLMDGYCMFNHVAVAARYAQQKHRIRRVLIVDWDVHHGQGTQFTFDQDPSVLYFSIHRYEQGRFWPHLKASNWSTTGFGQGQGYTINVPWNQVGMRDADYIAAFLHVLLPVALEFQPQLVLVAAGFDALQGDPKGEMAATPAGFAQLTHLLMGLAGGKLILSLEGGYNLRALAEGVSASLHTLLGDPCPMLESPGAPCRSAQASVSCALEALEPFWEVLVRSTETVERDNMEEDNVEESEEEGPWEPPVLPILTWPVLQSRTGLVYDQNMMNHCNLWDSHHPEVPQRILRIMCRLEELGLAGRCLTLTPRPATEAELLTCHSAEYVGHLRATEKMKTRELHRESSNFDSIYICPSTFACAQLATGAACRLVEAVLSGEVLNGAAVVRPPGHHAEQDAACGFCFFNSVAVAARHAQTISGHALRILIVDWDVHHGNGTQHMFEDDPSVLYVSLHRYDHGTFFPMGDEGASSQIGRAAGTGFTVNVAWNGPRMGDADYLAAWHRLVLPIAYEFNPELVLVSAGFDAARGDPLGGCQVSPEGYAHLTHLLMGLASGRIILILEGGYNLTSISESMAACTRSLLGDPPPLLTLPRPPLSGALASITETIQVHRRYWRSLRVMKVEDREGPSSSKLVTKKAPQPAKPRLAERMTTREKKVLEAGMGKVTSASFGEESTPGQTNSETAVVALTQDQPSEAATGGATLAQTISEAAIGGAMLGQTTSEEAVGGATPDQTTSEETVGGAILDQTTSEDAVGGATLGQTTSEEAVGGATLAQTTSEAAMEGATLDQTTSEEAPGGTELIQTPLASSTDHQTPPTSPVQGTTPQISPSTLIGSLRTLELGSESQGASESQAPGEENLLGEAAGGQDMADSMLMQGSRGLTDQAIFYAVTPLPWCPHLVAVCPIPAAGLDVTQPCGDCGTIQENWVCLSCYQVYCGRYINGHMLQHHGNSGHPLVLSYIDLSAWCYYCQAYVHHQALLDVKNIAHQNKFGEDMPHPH
Experimental: as §1, §2
Recombinant human HDAC6 (GenBank Accession No. BC069243), full length, MW=159 kDa, was expressed by baculovirus in Sf9 insect cells using an N-terminal GST tag.
as §3
HDAC6: 0.3 ng/ul HDAC6 and 50 μM HDAC substrate are in the reaction buffer with 1% DMSO final. Incubate for 1 hours at 30° C.
as §4, §5

[5] = molecular target: T5, Human HDAC7 (Homo sapiens, UniProt Q8WUI4); assay: HDAC7 biochemical assay, class IIa-specific substrate; conditions: read-out: HDAC Isoform IC50 (nM) 7
T5 construct: (a.a. 518-end) with N-terminal GST tag; GST (N); host or cells: baculovirus expression system
T5 sequence (Q8WUI4 518-952 limits assumed): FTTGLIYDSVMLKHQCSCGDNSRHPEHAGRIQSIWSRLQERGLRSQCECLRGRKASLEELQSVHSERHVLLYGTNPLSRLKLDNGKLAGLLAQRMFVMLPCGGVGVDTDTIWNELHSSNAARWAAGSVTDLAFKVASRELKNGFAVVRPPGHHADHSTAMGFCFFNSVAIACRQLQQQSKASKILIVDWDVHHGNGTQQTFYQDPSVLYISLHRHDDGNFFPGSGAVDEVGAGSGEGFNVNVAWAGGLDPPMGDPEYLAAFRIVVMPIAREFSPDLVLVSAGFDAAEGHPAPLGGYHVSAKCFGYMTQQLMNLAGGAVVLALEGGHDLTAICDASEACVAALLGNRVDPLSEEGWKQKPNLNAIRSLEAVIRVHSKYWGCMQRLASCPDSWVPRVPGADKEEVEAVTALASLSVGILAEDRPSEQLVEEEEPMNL
Experimental: as §1, §2
Human HDAC7 (GenBank Accession No. AY302468), (a.a. 518-end) with N-terminal GST tag, MW=78 kDa, expressed in baculovirus expression system.
as §3, §6
HDAC7: 0.001 ng/ul HDAC7 and 50 μM Class IIa HDAC substrate are in the reaction buffer with 1% DMSO final. Incubate for 30 minutes at room temperature.
as §4, §5

[6] = molecular target: T6, Human HDAC9 (Homo sapiens, UniProt Q9UKV0); assay: HDAC9 biochemical assay, class IIa-specific substrate; conditions: read-out: HDAC Isoform IC50 (nM) 9
T6 construct: amino acids 604-1066 with C-terminal His tag; His (C); host or cells: baculovirus expression system
Experimental: as §1, §2
Human HDAC9 (GenBank Accession No. NM_178423), amino acids 604-1066 with C-terminal His tag, MW=50.7 kDa, expressed in baculovirus expression system.
as §3, §6
HDAC9: 0.06 ng/ul HDAC9 and 50 μM Class IIa HDAC substrate are in the reaction buffer with 1% DMSO final. Incubate for 30 minutes at room temperature.
as §4, §5

T6 sequence (Q9UKV0 604-1066 isoform Q9UKV0-5): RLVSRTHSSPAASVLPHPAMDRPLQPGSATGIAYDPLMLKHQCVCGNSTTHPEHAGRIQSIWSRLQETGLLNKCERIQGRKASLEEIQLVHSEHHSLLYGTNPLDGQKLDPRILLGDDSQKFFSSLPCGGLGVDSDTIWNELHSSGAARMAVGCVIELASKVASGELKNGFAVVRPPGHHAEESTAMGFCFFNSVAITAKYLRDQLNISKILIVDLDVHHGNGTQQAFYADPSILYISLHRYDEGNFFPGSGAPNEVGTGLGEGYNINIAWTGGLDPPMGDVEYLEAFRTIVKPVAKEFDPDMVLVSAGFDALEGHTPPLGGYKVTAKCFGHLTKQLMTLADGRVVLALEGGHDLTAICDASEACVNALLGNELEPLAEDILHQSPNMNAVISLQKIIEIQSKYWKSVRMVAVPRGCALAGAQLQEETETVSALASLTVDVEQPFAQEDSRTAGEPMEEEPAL
T2 sequence (P56524 627-1084 limits assumed): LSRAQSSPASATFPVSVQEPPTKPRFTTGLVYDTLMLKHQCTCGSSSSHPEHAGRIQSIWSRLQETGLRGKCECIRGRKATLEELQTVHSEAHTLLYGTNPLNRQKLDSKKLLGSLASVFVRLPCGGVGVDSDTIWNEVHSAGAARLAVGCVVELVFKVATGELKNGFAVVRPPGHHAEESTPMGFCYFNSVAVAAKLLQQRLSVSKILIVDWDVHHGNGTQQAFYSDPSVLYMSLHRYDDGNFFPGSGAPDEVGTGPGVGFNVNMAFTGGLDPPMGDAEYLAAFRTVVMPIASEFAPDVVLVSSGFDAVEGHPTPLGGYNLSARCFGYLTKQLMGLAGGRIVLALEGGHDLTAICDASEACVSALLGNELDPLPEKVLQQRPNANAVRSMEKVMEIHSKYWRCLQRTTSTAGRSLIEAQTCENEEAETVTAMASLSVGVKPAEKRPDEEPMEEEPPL
T3 sequence (Q9UQL6 656-1122 limits assumed): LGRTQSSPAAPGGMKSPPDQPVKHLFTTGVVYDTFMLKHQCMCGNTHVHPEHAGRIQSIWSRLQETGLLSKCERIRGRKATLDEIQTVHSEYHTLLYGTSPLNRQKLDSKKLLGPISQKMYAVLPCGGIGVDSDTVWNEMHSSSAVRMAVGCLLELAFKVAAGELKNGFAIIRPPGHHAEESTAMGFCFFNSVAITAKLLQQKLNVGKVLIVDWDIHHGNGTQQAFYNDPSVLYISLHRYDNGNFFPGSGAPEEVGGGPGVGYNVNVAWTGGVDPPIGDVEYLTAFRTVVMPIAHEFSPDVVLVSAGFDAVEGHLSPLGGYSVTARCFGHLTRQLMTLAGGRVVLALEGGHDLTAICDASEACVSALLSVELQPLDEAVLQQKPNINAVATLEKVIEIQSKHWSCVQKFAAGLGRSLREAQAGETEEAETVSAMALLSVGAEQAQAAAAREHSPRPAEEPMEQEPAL
T1 sequence (Q13547 whole entry, canonical isoform): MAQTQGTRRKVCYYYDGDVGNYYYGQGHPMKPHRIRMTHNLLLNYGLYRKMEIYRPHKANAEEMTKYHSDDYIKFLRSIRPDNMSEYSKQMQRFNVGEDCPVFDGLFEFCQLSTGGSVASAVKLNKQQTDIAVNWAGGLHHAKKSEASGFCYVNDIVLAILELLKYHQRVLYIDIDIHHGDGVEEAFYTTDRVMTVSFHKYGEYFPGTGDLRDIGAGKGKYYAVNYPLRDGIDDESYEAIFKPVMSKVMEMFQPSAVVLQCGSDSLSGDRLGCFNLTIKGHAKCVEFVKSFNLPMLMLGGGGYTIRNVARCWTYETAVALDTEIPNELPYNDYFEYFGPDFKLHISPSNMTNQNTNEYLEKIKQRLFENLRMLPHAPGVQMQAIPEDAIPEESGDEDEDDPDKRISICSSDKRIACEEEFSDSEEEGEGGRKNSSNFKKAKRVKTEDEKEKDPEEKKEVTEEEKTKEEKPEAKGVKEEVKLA

Row | Compound | IC50 [1] | IC50 [2] | IC50 [3] | IC50 [4] | IC50 [5] | IC50 [6]
1 | FC(F)(F)c1ccnc(N(Cc2ccc(-c3noc(C(F)(F)F)n3)s2)c2cnccn2)c1 [Example AI, N-({5-[5-(Trifluoromethyl)-1,2,4-oxadiazol-3-yl]thiophen-2-yl}methyl)-N-[4-(trifluoromethyl)pyridin-2-yl]pyrazin-2-amine] | > 10000 nM | > 10000 nM | ≤ 10000 nM | ≤ 10000 nM | > 10000 nM | > 10000 nM
2 | FC(F)(F)c1nc(-c2ccc(CN(c3cnccn3)c3cncnc3C(F)(F)F)s2)no1 [Example DA, N-(Pyrazin-2-yl)-4-(trifluoromethyl)-N-({5-[5-(trifluoromethyl)-1,2,4-oxadiazol-3-yl]thiophen-2-yl}methyl)pyrimidin-5-amine] | > 10000 nM | ≤ 1000 nM | ≤ 10000 nM | ≤ 10000 nM | ≤ 10000 nM | ≤ 10000 nM
3 | FC(F)(F)c1cnnc(N(Cc2ccc(-c3noc(C(F)(F)F)n3)s2)c2ncccn2)c1 [Example EK, N-(Pyrimidin-2-yl)-5-(trifluoromethyl)-N-({5-[5-(trifluoromethyl)-1,2,4-oxadiazol-3-yl]thiophen-2-yl}methyl)pyridazin-3-amine] | > 10000 nM | > 10000 nM | ≤ 10000 nM | ≤ 10000 nM | > 10000 nM | > 10000 nM
4 | FC(F)(F)c1cncc(N(Cc2ccc(-c3noc(C(F)(F)F)n3)s2)c2cnccn2)c1 [Example AQ, N-({5-[5-(Trifluoromethyl)-1,2,4-oxadiazol-3-yl]thiophen-2-yl}methyl)-N-[5-(trifluoromethyl)pyridin-3-yl]pyrazin-2-amine] | > 10000 nM | ≤ 10000 nM | ≤ 1000 nM | ≤ 10000 nM | ≤ 10000 nM | ≤ 10000 nM
5 | COc1cncc(N(Cc2ccc(-c3noc(C(F)(F)F)n3)s2)c2cncc(OC)n2)n1 [Example BY, 6-Methoxy-N-(6-methoxypyrazin-2-yl)-N-({5-[5-(trifluoromethyl)-1,2,4-oxadiazol-3-yl]thiophen-2-yl}methyl)pyrazin-2-amine] | > 10000 nM | ≤ 10000 nM | ≤ 10000 nM | ≤ 10000 nM | ≤ 10000 nM | ≤ 10000 nM
6 | FC(F)(F)c1nc(-c2ccc(CN(c3cnccn3)c3nccc(N4CCCC4)n3)s2)no1 [Example AV, N-(Pyrazin-2-yl)-4-(pyrrolidin-1-yl)-N-({5-[5-(trifluoromethyl)-1,2,4-oxadiazol-3-yl]thiophen-2-yl}methyl)pyrimidin-2-amine] | > 10000 nM | ≤ 10000 nM | ≤ 10000 nM | ≤ 10000 nM | ≤ 10000 nM | ≤ 10000 nM
7 | FC(F)(F)c1nc(-c2ccc(CN(c3cnccn3)c3cc(N4CCOCC4)ncn3)s2)no1 [Example CL, 6-(Morpholin-4-yl)-N-(pyrazin-2-yl)-N-({5-[5-(trifluoromethyl)-1,2,4-oxadiazol-3-yl]thiophen-2-yl}methyl)pyrimidin-4-amine] | > 10000 nM | ≤ 10000 nM | ≤ 10000 nM | ≤ 10000 nM | ≤ 10000 nM | ≤ 10000 nM
8 | FC(F)(F)c1cnnc(N(Cc2ccc(-c3noc(C(F)(F)F)n3)s2)c2ccc(N3CCOCC3)nn2)c1 [Example EX, 6-(Morpholin-4-yl)-N-({5-[5-(trifluoromethyl)-1,2,4-oxadiazol-3-yl]thiophen-2-yl}methyl)-N-[5-(trifluoromethyl)pyridazin-3-yl]pyridazin-3-amine] | ≤ 10000 nM | ≤ 10000 nM | ≤ 10000 nM | ≤ 1000 nM | ≤ 10000 nM | ≤ 10000 nM
9 | Cn1ccc2c(N(Cc3ccc(-c4noc(C(F)(F)F)n4)s3)c3cnccn3)ncnc21 [Example CM, N-{7-Methyl-7H-pyrrolo[2,3-d]pyrimidin-4-yl}-N-({5-[5-(trifluoromethyl)-1,2,4-oxadiazol-3-yl]thiophen-2-yl}methyl)pyrazin-2-amine] | > 10000 nM | ≤ 10000 nM | ≤ 10000 nM | ≤ 10000 nM | ≤ 10000 nM | ≤ 10000 nM
